Test results from ChEMBL document CHEMBL3046207, “Synthesis of a new series of 2-(2-oxo-2H-chromen-3-yl)-5H-chromeno[4,3-b]pyridin-5-ones by two facile methods and evaluation of their antimicrobial activity” (2013).
≈ marks a conversion by molar mass, not a printed value.

Key:
[1] = tested on: Staphylococcus aureus; test: Antibacterial activity against Staphylococcus aureus MTCC 96 by broth dilution method; assay type: functional
[2] = tested on: Escherichia coli; test: Antibacterial activity against Escherichia coli MTCC 443 by broth dilution method; assay type: functional
[3] = tested on: Bacillus subtilis; test: Antibacterial activity against Bacillus subtilis MTCC 441 by broth dilution method; assay type: functional
[4] = tested on: Salmonella typhimurium; test: Antibacterial activity against Salmonella enterica typhimurium MTCC 98 by broth dilution method; assay type: functional, Salmonella enterica subsp. enterica serovar Typhimurium
[5] = tested on: Candida albicans; test: Antifungal activity against Candida albicans MTCC 227 by broth dilution method; assay type: functional
[6] = tested on: Aspergillus niger; test: Antifungal activity against Aspergillus niger MTCC 282 by broth dilution method; assay type: functional

Compound | MIC [1] [µg/mL] | MIC [2] [µg/mL] | MIC [3] [µg/mL] | MIC [4] [µg/mL] | MIC [5] [µg/mL] | MIC [6] [µg/mL]
CCn1cc(C(=O)O)c(=O)c2cc(F)c(N3CCNCC3)cc21 [NORFLOXACIN] | 10 (≈ 31.3 µM) | 10 (≈ 31.3 µM) | 100 (≈ 313 µM) | 10 (≈ 31.3 µM) |  | 
COc1cccc2cc(-c3ccc4c(=O)oc5ccc(Cl)cc5c4n3)c(=O)oc12 | 200 (≈ 493 µM) | 200 (≈ 493 µM) | 62.5 (≈ 154 µM) | 250 (≈ 616 µM) | > 1000 | 500 (≈ 1230 µM)
O=c1oc2ccc3ccccc3c2cc1-c1ccc2c(=O)oc3ccccc3c2n1 | 100 (≈ 256 µM) | 250 (≈ 639 µM) | 125 (≈ 319 µM) | 200 (≈ 511 µM) | 250 (≈ 639 µM) | > 1000
COc1cccc2cc(-c3ccc4c(=O)oc5ccccc5c4n3)c(=O)oc12 | 100 (≈ 269 µM) | 200 (≈ 539 µM) | 200 (≈ 539 µM) | 250 (≈ 673 µM) | 1000 (≈ 2690 µM) | 1000 (≈ 2690 µM)
COC1=CC(=O)C[C@@H](C)[C@]12Oc1c(Cl)c(OC)cc(OC)c1C2=O [GRISEOFULVIN] |  |  |  |  | 500 (≈ 1420 µM) | 100 (≈ 283 µM)
O=c1oc2ccccc2cc1-c1ccc2c(=O)oc3ccccc3c2n1 | 200 (≈ 586 µM) | 125 (≈ 366 µM) | 250 (≈ 732 µM) | 200 (≈ 586 µM) | 1000 (≈ 2930 µM) | 500 (≈ 1460 µM)
O=c1oc2ccccc2cc1-c1ccc2c(=O)oc3ccc(Cl)cc3c2n1 | 125 (≈ 333 µM) | 125 (≈ 333 µM) | 200 (≈ 532 µM) | 100 (≈ 266 µM) | > 1000 | > 1000
CC1(C)S[C@@H]2[C@H](NC(=O)[C@H](N)c3ccccc3)C(=O)N2[C@H]1C(=O)O [AMPICILLIN] | 250 (≈ 715 µM) | 100 (≈ 286 µM) | 250 (≈ 715 µM) | 100 (≈ 286 µM) |  | 
O=c1oc2ccc3ccccc3c2cc1-c1ccc2c(=O)oc3ccc(Cl)cc3c2n1 | 62.5 (≈ 147 µM) | 62.5 (≈ 147 µM) | 200 (≈ 470 µM) | 100 (≈ 235 µM) | 500 (≈ 1170 µM) | 1000 (≈ 2350 µM)
Cc1cccc2c1oc(=O)c1ccc(-c3cc4ccccc4oc3=O)nc12 | 200 (≈ 563 µM) | 200 (≈ 563 µM) | 250 (≈ 704 µM) | 250 (≈ 704 µM) | 500 (≈ 1410 µM) | > 1000
COc1cccc2cc(-c3ccc4c(=O)oc5c(C)cccc5c4n3)c(=O)oc12 | 250 (≈ 649 µM) | 250 (≈ 649 µM) | 125 (≈ 324 µM) | 250 (≈ 649 µM) | 200 (≈ 519 µM) | > 1000
Cc1cccc2c1oc(=O)c1ccc(-c3cc4c(ccc5ccccc54)oc3=O)nc12 | 100 (≈ 247 µM) | 62.5 (≈ 154 µM) | 125 (≈ 308 µM) | 100 (≈ 247 µM) | 1000 (≈ 2470 µM) | > 1000
Cc1ccc2oc(=O)c3ccc(-c4cc5ccccc5oc4=O)nc3c2c1 | 250 (≈ 704 µM) | 125 (≈ 352 µM) | 200 (≈ 563 µM) | 125 (≈ 352 µM) | 500 (≈ 1410 µM) | > 1000
COc1cccc2cc(-c3ccc4c(=O)oc5ccc(C)cc5c4n3)c(=O)oc12 | 100 (≈ 259 µM) | 250 (≈ 649 µM) | 62.5 (≈ 162 µM) | 200 (≈ 519 µM) | 1000 (≈ 2590 µM) | 500 (≈ 1300 µM)
NYSTATIN |  |  |  |  | 100 | 100
Cc1ccc2oc(=O)c3ccc(-c4cc5c(ccc6ccccc65)oc4=O)nc3c2c1 | 62.5 (≈ 154 µM) | 250 (≈ 617 µM) | 200 (≈ 493 µM) | 250 (≈ 617 µM) | 1000 (≈ 2470 µM) | 500 (≈ 1230 µM)
